Measurements reported in ChEMBL document CHEMBL5126505, “Adenosine receptor antagonists: Recent advances and therapeutic perspective” (Eur J Med Chem, 2022).
Blank lines part the entries; values can stand above or below the compound they belong to.

Legend:
[1] = biological target: T1, Adenosine receptor A3 (Homo sapiens, UniProt P0DMS8)
T1 sequence (P0DMS8 whole entry): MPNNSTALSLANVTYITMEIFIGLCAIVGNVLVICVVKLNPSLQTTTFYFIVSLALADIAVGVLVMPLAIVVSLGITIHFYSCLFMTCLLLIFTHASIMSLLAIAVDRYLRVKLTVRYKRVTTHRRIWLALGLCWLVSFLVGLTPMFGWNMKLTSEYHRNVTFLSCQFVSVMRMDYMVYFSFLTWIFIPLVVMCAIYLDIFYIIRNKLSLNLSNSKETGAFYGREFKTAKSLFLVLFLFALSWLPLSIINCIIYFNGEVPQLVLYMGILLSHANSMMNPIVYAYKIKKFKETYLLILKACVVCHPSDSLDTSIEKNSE
Description: Antagonist activity at human adenosine A3 receptor expressed in CHO cells assessed as cAMP level measured by enzyme immunoassay

[2] = biological target: T1, Adenosine receptor A3; experiment: biochemical
Description: Displacement of [3H]NECA from human adenosine A3 receptor expressed in HeLa cells measured by scintillation counting assay

[3] = biological target: T2, Adenosine receptor A2a (Homo sapiens, UniProt P29274)
T2 sequence (P29274 whole entry): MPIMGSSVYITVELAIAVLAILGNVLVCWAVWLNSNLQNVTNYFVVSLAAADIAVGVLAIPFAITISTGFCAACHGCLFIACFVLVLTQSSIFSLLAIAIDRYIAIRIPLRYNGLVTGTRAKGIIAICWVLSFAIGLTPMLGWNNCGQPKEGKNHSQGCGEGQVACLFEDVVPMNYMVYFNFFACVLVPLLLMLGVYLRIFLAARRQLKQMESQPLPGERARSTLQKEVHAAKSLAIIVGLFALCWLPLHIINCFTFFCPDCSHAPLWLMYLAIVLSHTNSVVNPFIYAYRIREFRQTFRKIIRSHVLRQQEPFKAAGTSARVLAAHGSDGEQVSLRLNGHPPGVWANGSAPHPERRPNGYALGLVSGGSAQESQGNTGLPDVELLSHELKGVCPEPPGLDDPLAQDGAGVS
Description: Binding affinity to human adenosine A2A receptor

[4] = biological target: T3, Amine oxidase [flavin-containing] B (Homo sapiens, UniProt P27338)
T3 sequence (P27338 whole entry): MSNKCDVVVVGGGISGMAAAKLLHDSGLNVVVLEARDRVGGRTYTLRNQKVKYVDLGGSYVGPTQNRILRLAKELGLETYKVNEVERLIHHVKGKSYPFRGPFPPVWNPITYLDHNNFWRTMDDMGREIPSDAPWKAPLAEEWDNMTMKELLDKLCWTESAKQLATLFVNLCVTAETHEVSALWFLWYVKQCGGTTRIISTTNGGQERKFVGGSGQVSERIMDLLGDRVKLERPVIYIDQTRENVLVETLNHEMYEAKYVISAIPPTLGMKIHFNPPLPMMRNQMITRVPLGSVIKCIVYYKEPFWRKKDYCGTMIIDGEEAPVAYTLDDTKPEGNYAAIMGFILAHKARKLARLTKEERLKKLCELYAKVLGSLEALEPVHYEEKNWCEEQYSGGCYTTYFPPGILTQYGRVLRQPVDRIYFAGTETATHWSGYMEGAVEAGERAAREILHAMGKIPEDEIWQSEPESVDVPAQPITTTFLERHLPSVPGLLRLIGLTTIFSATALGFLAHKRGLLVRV
Description: Inhibition of MAO-B (unknown origin)

[5] = in vivo; conditions: male, Wistar, rat
Description: Half-life in male Wistar rat

[6] = biological target: T4, Adenosine receptor A1 (Homo sapiens, UniProt P30542)
T4 sequence (P30542 whole entry): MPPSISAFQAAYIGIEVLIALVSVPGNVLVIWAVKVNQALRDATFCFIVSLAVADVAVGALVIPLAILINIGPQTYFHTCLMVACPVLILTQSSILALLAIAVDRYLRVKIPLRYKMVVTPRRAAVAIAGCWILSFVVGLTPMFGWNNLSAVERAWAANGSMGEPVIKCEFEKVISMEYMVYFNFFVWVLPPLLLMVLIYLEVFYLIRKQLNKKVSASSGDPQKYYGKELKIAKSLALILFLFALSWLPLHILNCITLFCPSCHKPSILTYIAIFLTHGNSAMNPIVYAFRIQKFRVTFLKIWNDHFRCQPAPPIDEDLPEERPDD
Description: Antagonist activity at human adenosine A1A receptor

[7] = biological target: T5, Adenosine receptor A2b (Homo sapiens, UniProt P29275); experiment: Antagonist activity at human adenosine A2B receptor expressed in HEK293 cells assessed as inhibition of cAMP production; type: functional, cell-based
T5 sequence (P29275 whole entry): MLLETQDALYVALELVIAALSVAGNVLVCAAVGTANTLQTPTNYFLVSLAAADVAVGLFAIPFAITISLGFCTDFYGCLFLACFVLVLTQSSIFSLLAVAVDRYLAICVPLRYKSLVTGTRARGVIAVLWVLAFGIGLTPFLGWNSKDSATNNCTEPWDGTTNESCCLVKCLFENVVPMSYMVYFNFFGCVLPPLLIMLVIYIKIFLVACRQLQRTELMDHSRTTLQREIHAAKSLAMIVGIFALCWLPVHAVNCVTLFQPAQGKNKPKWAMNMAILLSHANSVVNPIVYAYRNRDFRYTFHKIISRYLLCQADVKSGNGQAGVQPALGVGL

[8] = biological target: T5, Adenosine receptor A2b
Description: Antagonist activity at human adenosine A2B receptor expressed in mouse NIH/3T3 cells assessed as inhibition of NECA-induced IL-6 release

[9] = biological target: T5, Adenosine receptor A2b; remark: listed apart in the source
Description: Binding affinity to human adenosine A2B receptor

[10] = in vitro; conditions: human, liver microsomes
[11] = in vitro; conditions: human, Caco-2
Description: Apparent permeability in human Caco-2 cells

[12] = organism: Rattus norvegicus; experiment: animal or person; conditions: po, 4 h
Description: Reversal of haloperidol-induced catalepsy in rat administered orally and measured after 4 hrs

[13] = organism: Rattus norvegicus; experiment: animal or person; conditions: po
Description: Antiparkinson's activity in L-DOPA induced dyskinesia rat model assessed as reduction in contralateral rotations administered orally

[14] = biological target: T2, Adenosine receptor A2a; experiment: biochemical
Description: Displacement of [3H]ZM-241385 from human adenosine A2A receptor expressed in HEK293 cells incubated for 60 mins and measured by scintillation counting assay

[15] = in vivo; conditions: male, Wistar, rat, iv, 3 mg/kg
Description: Half-life in male Wistar rat at 3 mg/kg, iv

[16] = biological target: T2, Adenosine receptor A2a; experiment: Displacement of [3H]NECA from human adenosine A2A receptor expressed in CHO cells measured by radioligand competition assay; type: cell-based
[17] = biological target: T4, Adenosine receptor A1; experiment: Displacement of [3H]CCPA from human adenosine […] receptor expressed in CHO cells measured by radioligand competition assay; type: cell-based

SMILES: CCn1nnc([C@H]2O[C@@H](n3cnc4c(N)nc(NC(C)Cc5ccc(OC)cc5)nc43)[C@H](O)[C@@H]2O)n1 (some centres not stated)
- Ki [1]: 6 nM
- Ki [2]: 13 nM

SMILES: Cn1c(=O)c2c(nc(/C=C/c3cccc(Br)c3)n2C)n(C)c1=O
- Ki [3]: 28.4 nM
- IC50 [4]: 112 nM

SMILES: CCCn1c(=O)c2[nH]c(-c3cnn(CC#Cc4cccc(OC(F)(F)F)c4)c3)nc2n(CCC)c1=O
- Ki [7]: 8 nM
- IC50 [8]: 107 nM
- Ki [9]: 13 nM

SMILES: Nc1cc(-c2ccco2)c2oc(-c3ccco3)nc2c1
- half-life at 0.1 µM [10]: > 0.683 h
- Papp [11]: 77 ×10⁻⁶ cm/s

SMILES: O=c1oc2c(O)cccc2cc1-c1ccc(Br)cc1
- Ki [16]: 12100 nM
- Ki [17]: 2400 nM

The next lines start with results.

- half-life [5]: 2 h
- Ki [6]: 2 nM
SMILES: CCCn1c(Oc2ccc(F)c(F)c2)nc2nc(C3CCCC3)[nH]c2c1=O

- Ki [14]: 0.4 nM
- half-life [15]: 1 h
SMILES: COCCOc1ccc(N2CCN(CCn3c(=O)n(C)c4c3nc(N)n3nc(-c5nccs5)nc43)CC2)c(F)c1
- ED50 [12]: 4.49 mg/kg
- ED50 [13]: 1.2 mg/kg
